According to US5889029A, “Use of cotinine in treating psychiatric disorders” (priority 1997, dated 1999):
Read-outs that look alike come from different tables or passages of the source.

How the values were obtained:
[1] = cited from earlier work
[2] = in vivo, cited from earlier work
[3] = target: T1, Opiate (Delta) (Rattus norvegicus, UniProt P33533); experiment: Opiate (Delta) Binding Assay; conditions: read-out: Receptor Binding Activity Percent Inhibition Average (N = 2)
T1 construct: Rat forebrain membranes; from tissue; host or cells: rat forebrain membranes

[4] = target: T2, Human recombinant M2 clone (Homo sapiens, UniProt P08172); experiment: Muscarinic--M2 Clone Binding Assay
T2 construct: expressed in transfected cells
T2 sequence (P08172 1-466): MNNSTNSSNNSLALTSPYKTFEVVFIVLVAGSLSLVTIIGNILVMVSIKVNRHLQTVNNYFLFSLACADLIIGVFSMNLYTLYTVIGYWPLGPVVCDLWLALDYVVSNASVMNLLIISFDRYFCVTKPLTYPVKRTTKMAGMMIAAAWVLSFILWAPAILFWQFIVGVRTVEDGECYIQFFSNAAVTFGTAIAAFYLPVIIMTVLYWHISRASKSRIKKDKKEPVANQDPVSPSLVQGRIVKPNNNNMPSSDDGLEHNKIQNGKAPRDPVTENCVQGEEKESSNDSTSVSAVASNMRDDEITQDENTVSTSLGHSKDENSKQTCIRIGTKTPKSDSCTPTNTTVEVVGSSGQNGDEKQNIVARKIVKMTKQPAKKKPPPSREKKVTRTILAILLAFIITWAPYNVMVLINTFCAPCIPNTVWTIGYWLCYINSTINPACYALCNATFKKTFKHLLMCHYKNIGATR

[5] = target: T3, Dopamine (D1 Central) (Rattus norvegicus, UniProt P18901); experiment: Dopamine (D1 Central) Binding Assay; conditions: Rat striatal membranes, [3H]SCH 23390 0.5 nM
T3 construct: Rat striatal membranes; from tissue; host or cells: rat striatal membranes

[6] = target: T4, Histamine (H3) (Rattus norvegicus, UniProt Q9QYN8); experiment: Histamine (H3) Binding Assay; conditions: Rat forebrain membranes, [3H]N^a-methylhistamine 0.2 nM, read-out: Receptor Binding Activity Percent Inhibition Average (N = 2)
T4 construct: Rat forebrain membranes; from tissue; host or cells: rat forebrain membranes

[7] = target: T5, nicotinic binding site (Rattus norvegicus, UniProt P09483+P12390); experiment: biochemical; conditions: Rat cortical membranes, [3H]N-methylcarbamylcholine iodide 2.5 nM, read-out: Receptor Binding Activity Percent Inhibition Average (N = 2)
T5 construct: Rat cortical membranes; from tissue; host or cells: rat cortical membranes

[8] = tested on: Serotonin (5HT1); experiment: Serotonin (5HT1) Binding Assay; conditions: Rat cortical membranes, [3H]Hydroxytryptamine binoxalate 3.0 nM
[9] = cited from earlier work; remark: listed apart in the source
[10] = target: T6, Histamine (H2) (Cavia porcellus, UniProt P47747); experiment: Histamine (H2) Binding Assay; design: species or system Guinea pig; conditions: Guinea pig striatal membranes, [3H]Tiotidine 4.0 nM, read-out: Receptor Binding Activity Percent Inhibition Average (N = 2)
T6 construct: Guinea pig striatal membranes; from tissue; host or cells: guinea pig striatal membranes

[11] = tested on: Serotonin (Non-Selective); experiment: Serotonin (Non-Selective) Binding Assay; conditions: Rat cortical membranes, [3H]Lysergic acid diethylamide 5.0 nM
[12] = intravenous; cats; cited from earlier work
[13] = intramuscular injections; wide range of doses; squirrel monkeys; cited from earlier work
[14] = target: T7, GABA uptake site (Rattus norvegicus, UniProt P23978); experiment: biochemical; conditions: Rat cortical membranes, [3H]GABA 3.6 nM, read-out: Receptor Binding Activity Percent Inhibition Average (N = 2)
T7 construct: Rat cortical membranes; from tissue; host or cells: rat cortical membranes

[15] = Half-life, bioavailability and blood levels in humans; design: species or system human; conditions: in vivo
[16] = target: T8, recombinant Rat 5HT7 Clone (Rattus norvegicus, UniProt P32305); experiment: Serotonin--5HT7 Clone Binding Assay; conditions: [3H]LSD 2.0 nM, read-out: Receptor Binding Activity Percent Inhibition Average (N = 2)
T8 construct: expressed in transfected cells

[17] = target: T9, dopamine uptake site (Cavia porcellus, UniProt H0WCX4); experiment: Dopamine Reuptake Binding Assay; conditions: Guinea pig striatal membranes, [3H]WIN,35,428 1.0 nM
T9 construct: Guinea pig striatal membranes; from tissue; host or cells: guinea pig striatal membranes

[18] = target: T10, Inositol Triphosphate (IP3) (Rattus norvegicus, UniProt P29994); experiment: Inositol Triphosphate (IP3) Binding Assay; conditions: Rat cerebellar membranes, [3H]IP3 4.0 nM, read-out: Receptor Binding Activity Percent Inhibition Average (N = 2)
T10 construct: Rat cerebellar membranes; from tissue; host or cells: rat cerebellar membranes
Protocol: Tissue cultures were prepared using standard laboratory practice for the following tissues: human recombinant M1 clone, human recombinant M2 clone, guinea pig striatal membranes, rat cortical membranes, rat striatal membranes, rat forebrain membranes, bovine hippocampal membranes, guinea pig cerebellar membranes, rat kidney membranes, recombinant rat 5HT7 clone, and rat cerebellar membranes.
Inositol Triphosphate (IP3) Binding Assay
Rat cerebellar membranes
Radioligand: [^3 H]IP3 (10-30 Ci/mmol)
Final ligand concentration - [4.0 nM]
D-myo-inositol 1,4,5-triphosphate
Reactions are carried out in 50 mM TRIS-HCl (pH 8.3)
1 mM EDTA at 0° C. for 10 minutes. The reaction is
rapid vacuum filtration onto glass fiber filters.
onto the filters is determined and compared to control
order to ascertain any interactions of test compound with
inositol triphospate binding site.

[19] = target: T11, Benzodiazepine (Peripheral) (Rattus norvegicus, UniProt P16257); experiment: Benzodiazepine (Peripheral) Binding Assay; conditions: read-out: Receptor Binding Activity Percent Inhibition Average (N = 2)
T11 construct: Rat kidney membranes; from tissue; host or cells: rat kidney membranes

[20] = read-out: Receptor Binding Activity Percent Inhibition Average (N = 2)

T4 sequence (Q9QYN8 whole entry): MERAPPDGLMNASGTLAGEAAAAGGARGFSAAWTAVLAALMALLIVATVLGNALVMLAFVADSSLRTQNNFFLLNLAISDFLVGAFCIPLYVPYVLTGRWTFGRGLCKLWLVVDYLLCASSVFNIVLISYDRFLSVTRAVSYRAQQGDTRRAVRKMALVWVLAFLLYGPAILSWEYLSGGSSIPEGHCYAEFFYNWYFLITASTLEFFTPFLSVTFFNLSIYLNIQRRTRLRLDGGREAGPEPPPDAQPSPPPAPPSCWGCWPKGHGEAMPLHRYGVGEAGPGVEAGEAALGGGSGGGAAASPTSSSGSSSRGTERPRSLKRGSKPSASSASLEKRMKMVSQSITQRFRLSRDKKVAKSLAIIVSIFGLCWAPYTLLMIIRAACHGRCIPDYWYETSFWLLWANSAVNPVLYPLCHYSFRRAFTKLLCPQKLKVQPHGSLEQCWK
T8 sequence (P32305 whole entry): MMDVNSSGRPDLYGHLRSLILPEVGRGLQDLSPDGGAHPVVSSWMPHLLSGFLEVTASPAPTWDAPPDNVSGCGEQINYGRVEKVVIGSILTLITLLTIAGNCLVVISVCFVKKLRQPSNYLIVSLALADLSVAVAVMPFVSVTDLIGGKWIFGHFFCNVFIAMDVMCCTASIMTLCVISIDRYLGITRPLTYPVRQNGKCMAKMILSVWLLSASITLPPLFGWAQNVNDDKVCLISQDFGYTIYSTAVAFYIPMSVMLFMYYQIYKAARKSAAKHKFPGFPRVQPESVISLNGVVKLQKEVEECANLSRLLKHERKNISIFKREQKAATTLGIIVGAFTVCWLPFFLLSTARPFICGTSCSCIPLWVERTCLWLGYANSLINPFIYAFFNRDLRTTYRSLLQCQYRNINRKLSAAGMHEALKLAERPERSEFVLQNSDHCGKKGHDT
T3 sequence (P18901 whole entry): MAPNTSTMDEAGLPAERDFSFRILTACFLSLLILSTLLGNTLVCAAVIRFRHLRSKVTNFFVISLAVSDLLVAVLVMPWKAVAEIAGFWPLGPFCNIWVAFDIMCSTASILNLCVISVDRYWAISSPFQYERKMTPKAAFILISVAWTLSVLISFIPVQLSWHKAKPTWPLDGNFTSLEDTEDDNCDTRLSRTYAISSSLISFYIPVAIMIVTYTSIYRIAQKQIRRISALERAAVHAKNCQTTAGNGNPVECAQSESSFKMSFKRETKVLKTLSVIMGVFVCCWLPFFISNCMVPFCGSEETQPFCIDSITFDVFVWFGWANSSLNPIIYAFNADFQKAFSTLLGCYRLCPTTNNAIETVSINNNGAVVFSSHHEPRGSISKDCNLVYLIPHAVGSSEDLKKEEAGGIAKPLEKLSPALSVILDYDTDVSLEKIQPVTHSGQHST
T6 sequence (P47747 whole entry): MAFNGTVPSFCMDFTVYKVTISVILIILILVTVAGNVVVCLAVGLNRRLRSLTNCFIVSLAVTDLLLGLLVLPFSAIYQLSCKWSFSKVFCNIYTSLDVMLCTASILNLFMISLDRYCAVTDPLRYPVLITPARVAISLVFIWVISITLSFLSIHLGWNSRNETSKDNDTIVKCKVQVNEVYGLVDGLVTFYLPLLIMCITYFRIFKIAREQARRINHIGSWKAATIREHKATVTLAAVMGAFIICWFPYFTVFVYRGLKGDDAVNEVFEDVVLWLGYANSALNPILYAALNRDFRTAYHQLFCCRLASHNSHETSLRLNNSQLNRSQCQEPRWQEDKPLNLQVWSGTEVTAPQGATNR
T10 sequence (P29994 whole entry): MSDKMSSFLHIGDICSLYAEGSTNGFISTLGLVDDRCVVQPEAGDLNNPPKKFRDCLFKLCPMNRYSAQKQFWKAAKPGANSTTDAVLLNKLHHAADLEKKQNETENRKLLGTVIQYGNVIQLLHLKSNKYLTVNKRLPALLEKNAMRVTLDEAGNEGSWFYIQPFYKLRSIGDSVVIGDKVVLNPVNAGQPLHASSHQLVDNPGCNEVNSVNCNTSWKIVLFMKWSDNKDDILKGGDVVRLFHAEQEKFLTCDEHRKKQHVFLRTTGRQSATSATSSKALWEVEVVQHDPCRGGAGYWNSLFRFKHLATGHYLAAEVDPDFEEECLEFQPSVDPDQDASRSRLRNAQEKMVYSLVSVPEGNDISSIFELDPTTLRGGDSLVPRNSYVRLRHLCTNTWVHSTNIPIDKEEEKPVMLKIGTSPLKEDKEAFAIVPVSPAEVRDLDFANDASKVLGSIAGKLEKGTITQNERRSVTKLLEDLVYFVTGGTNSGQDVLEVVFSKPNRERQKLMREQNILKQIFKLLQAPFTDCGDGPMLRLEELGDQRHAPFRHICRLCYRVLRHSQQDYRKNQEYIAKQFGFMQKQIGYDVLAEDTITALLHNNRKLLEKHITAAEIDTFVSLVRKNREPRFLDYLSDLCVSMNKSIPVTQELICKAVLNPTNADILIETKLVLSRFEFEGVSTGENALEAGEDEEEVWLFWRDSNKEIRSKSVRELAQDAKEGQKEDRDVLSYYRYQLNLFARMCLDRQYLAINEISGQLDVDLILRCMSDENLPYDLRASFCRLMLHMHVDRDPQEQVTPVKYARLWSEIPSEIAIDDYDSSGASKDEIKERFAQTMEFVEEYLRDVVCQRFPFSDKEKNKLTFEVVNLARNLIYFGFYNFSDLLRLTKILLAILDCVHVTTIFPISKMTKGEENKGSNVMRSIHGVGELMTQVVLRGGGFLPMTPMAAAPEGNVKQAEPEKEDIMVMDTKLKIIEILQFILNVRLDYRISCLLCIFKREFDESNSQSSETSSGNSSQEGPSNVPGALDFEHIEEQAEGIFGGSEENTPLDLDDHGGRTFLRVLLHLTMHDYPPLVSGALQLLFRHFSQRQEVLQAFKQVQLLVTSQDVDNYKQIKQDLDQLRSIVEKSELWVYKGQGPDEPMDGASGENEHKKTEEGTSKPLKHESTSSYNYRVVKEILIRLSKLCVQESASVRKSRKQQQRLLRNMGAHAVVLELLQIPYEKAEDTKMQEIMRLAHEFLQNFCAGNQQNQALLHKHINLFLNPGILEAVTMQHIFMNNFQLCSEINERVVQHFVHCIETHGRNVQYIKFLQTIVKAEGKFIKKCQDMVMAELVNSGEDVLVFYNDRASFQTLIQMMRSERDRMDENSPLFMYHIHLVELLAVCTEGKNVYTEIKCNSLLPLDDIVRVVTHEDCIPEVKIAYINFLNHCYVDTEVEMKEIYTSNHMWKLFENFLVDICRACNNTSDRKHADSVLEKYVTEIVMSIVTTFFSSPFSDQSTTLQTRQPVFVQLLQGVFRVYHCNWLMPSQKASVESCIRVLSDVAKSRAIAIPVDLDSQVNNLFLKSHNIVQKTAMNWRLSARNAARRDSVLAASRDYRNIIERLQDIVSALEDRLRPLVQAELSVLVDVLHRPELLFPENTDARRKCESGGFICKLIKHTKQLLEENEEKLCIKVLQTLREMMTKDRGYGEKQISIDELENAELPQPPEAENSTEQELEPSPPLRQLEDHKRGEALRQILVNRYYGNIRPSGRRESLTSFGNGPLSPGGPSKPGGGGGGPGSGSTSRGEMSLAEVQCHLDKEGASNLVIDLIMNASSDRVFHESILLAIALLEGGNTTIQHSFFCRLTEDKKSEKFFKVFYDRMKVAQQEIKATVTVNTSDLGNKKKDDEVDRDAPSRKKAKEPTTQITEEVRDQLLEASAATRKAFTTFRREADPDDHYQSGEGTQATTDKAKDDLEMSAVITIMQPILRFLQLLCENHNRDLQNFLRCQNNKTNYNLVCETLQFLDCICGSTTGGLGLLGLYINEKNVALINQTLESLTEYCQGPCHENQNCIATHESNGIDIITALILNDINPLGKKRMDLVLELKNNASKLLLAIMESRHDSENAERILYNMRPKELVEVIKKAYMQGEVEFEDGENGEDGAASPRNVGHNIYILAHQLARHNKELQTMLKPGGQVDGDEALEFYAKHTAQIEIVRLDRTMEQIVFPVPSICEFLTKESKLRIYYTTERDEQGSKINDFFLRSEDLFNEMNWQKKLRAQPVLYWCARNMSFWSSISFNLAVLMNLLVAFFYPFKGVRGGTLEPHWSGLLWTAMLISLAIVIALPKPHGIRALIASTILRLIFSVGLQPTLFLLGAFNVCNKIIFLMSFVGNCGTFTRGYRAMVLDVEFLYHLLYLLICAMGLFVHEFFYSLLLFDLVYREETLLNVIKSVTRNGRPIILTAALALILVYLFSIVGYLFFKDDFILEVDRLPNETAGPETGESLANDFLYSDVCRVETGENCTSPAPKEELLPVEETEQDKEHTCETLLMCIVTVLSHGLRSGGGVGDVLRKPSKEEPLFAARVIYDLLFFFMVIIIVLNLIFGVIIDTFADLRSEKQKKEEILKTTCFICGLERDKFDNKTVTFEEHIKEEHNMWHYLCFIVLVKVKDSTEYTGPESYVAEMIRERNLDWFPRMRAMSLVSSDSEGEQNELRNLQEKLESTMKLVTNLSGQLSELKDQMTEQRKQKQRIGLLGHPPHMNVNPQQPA

For `CN1C(=O)CCC1c1cccnc1` (single isomer, unassigned) [Cotinine, 1-methyl-5-(3-pyridinyl)-2-pyrrolidionone], the “amount present in the blood without producing deleterious effects” value ([1]; humans) is given as ~18,000 ng/ml, the “effect on the cardiovascular system” value ([1]; in vivo) is given as “minimal effect” and the “harm at very high doses” value ([1]; many species, including man) is given as “has not been reported to be harmful”. The “passage of the blood-brain barrier” value [2] was “pass the blood-brain barrier”, the “passage of the blood-brain barrier” value ([2]; listed as cotinine) was “capable of passing the blood-brain barrier” and the inhibition at 1 µM [3] was 8.3%. The inhibition at 100 µM [3] was 10%, the “effectiveness in binding relative to an equal concentration of nicotine, binding expressed as percent inhibition” value ([4]; muscarinic-2 receptor, human tissue) was “about five” and the inhibition at 1 µM [4, 20] was 22.3%. The inhibition at 100 µM [4, 20] was 21.6%, the “Receptor Binding Activity Percent Inhibition Average (N = 2)” value ([5]; 10^-4 M) was 3.3% and the “Receptor Binding Activity Percent Inhibition Average (N = 2)” value ([5]; 10^-6 M) was 2.9%. The inhibition at 100 µM ([6]; 10^-4 M) was 15.7%, the inhibition at 1 µM ([6]; 10^-6 M) was 11.9% and the inhibition at 100 µM ([7]; 10^-4 M) was 12%. The inhibition at 1 µM ([7]; 10^-6 M) was 78.5%, the “Receptor Binding Activity Percent Inhibition Average (N = 2)” value ([8]; 10^-4 M) was -0.8% and the “Receptor Binding Activity Percent Inhibition Average (N = 2)” value ([8]; 10^-6 M) was 10.9%. The terminal elimination half-life ([9]; human, in vivo) was “about 16 hours”, the half-life ([9]; in the human, in vivo) was 16 to 17 h and the oral bioavailability ([9]; in vivo, po) was “complete”. The terminal elimination half-life ([9]; in vivo) was “sixteen”, the “blood concentration in smokers” value ([9]; nicotine: one-pack-a-day smoker, cotinine: one-half-pack-a-day smoker) was “about 300 ng/ml” and the concentration ([9]; read-out: blood concentration in smokers, nicotine: one-pack-a-day smoker, cotinine: one-half-pack-a-day smoker) was roughly 2000 nM. The inhibition at 100 µM ([10]; 10^-4 M) was -1.4%, the inhibition at 1 µM ([10]; 10^-6 M) was 9.2% and the “Receptor Binding Activity Percent Inhibition Average (N = 2)” value ([11]; 10^-4 M) was 12.1%. For the same compound, the “Receptor Binding Activity Percent Inhibition Average (N = 2)” value ([11]; 10^-6 M) was 4.6%, the “EEG activity and behavioral arousal” value [12] was “increases only slightly” and the blood pressure [12] was “only a slight decrease”. The “rates of responding on fixed interval schedules of reinforcement” value [13] was “increased rates of responding”, the inhibition at 100 µM ([14]; 10^-4 M) was 7.4% and the inhibition at 1 µM ([14]; 10^-6 M) was 13.9%. The “duration of effectiveness relative to nicotine, due to greater half-life” value [15] was “about eight”, the inhibition at 100 µM ([16]; 10^-4 M) was 6.4% and the inhibition at 1 µM ([16]; 10^-6 M) was -0.3%. The “Receptor Binding Activity Percent Inhibition Average (N = 2)” value ([17]; 10^-4 M) was 7.5%, the “Receptor Binding Activity Percent Inhibition Average (N = 2)” value ([17]; 10^-6 M) was 14.2% and the inhibition at 100 µM ([18]; 10^-4 M) was 8.3%. The inhibition at 1 µM ([18]; 10^-6 M) was 4.8%, the inhibition at 1 µM [19] was 8.5% and the inhibition at 100 µM [19] was 1.4%.
